Assay results as given in DBAASP.
Values after ≈ are worked out from the molar mass of the structure shown. Values joined by “and” are separate entries in the source; they are usually repeats but may differ in a detail not shown here. Equal entries are not always repeated. Values belong to the compound of their own block, whether it stands above or below them.

Legend:
Assay in all cases: ≥ marks a high value that may be exact or a test limit, other limits are often not marked, values filed in µg/mL are converted to µM
[1] = system: Candida albicans ATCC 90028
[2] = system: Enterobacter cloacae HNTCC 53001
[3] = system: Enterococcus faecalis ATCC 29212
[4] = system: Escherichia coli ATCC 25922
[5] = system: Klebsiella pneumoniae KK3 9904
[6] = system: Proteus mirabilis ATCC 25933
[7] = system: Pseudomonas aeruginosa ATCC 27853
[8] = system: Staphylococcus aureus NCTC 8325
[9] = system: Staphylococcus aureus T7/20
[10] = system: Staphylococcus epidermidis RP62A
[11] = system: Acholeplasma laidlawii A-EF22
[12] = system: Mycoplasma mycoides ssp. mycoides SC KH3J
Spiroplasma citri R8A2 = system: Spiroplasma citri R8A2
[13] = system: Spiroplasma floricola BNR 1
[14] = system: Spiroplasma melliferum BC3
[15] = system: Agrobacterium tumefaciens ATCC 15955
Escherichia coli 45849 = system: Escherichia coli 45849
Escherichia coli BL21AI = system: Escherichia coli BL21AI
Escherichia coli D31 = system: Escherichia coli D31
[16] = system: Klebsiella pneumoniae 123132
[17] = system: Klebsiella pneumoniae K6 ATCC 700603
[18] = system: Micrococcus luteus ATCC 10240
[19] = system: Salmonella enterica subsp. enterica serovar Typhi S5
[20] = system: Salmonella enterica subsp. enterica serovar Typhimurium ATCC 700408
[21] = system: Acinetobacter baumannii ATCC 19606
Acinetobacter baumannii = system: Acinetobacter baumannii
Escherichia coli D21 = system: Escherichia coli D21
Micrococcus luteus = system: Micrococcus luteus
[22] = system: Staphylococcus aureus II ATCC 6538P
[23] = system: Staphylococcus epidermidis LT1324
Staphylococcus simulans = system: Staphylococcus simulans
Bacillus subtilis 168 = system: Bacillus subtilis 168
[24] = system: Escherichia coli BNCC 133264
Escherichia coli K-12 = system: Escherichia coli K-12
Escherichia coli = system: Escherichia coli
Listeria monocytogenes = system: Listeria monocytogenes
[25] = system: Pseudomonas aeruginosa BNCC 125486
[26] = system: Pseudomonas aeruginosa PAO1
[27] = system: Staphylococcus aureus BNCC 186335
[28] = system: Staphylococcus aureus USA 300
Staphylococcus aureus = system: Staphylococcus aureus
[29] = system: Bacillus licheniformis X39
[30] = system: Candida albicans ATCC 10231
[31] = system: Enterococcus faecalis 981
[32] = system: Klebsiella pneumoniae 08040724
[33] = system: Pseudomonas aeruginosa 11053
[34] = system: Pseudomonas aeruginosa CGMCC 1.50
[35] = system: Psychrobacter faecalis X29
[36] = system: Rhodococcus rhodochrous X15
Serratia rubidaea X01 = system: Serratia rubidaea X01
[37] = system: Staphylococcus aureus ATCC 25923
[38] = system: Staphylococcus carnosus KHS

- MIC [15]: 0.298 µM (≈ 0.65 µg/mL)
- MIC (Escherichia coli 45849): 0.115 µM (≈ 0.25 µg/mL)
- MIC (Escherichia coli BL21AI): 1.27 µM (≈ 2.76 µg/mL)
- MIC (Escherichia coli D31): 3.67 µM (≈ 8 µg/mL)
- MIC [16]: 1.84 µM (≈ 4 µg/mL)
- MIC [17]: 3.67 µM (≈ 8 µg/mL)
- MIC [18]: 0.634 µM (≈ 1.38 µg/mL)
- MIC [19]: 0.459 µM (≈ 1 µg/mL)
- MIC [20]: 0.162 µM (≈ 0.353 µg/mL)
Compound: CC[C@H](C)[C@H](NC(=O)[C@H](Cc1ccc(O)cc1)NC(=O)[C@@H](NC(=O)[C@@H]1CCCN1C(=O)[C@H](CCCN=C(N)N)NC(=O)[C@H](CC(N)=O)NC(=O)[C@H](CC(N)=O)NC(=O)[C@@H](N)CCCCN)C(C)C)C(=O)N1CCC[C@H]1C(=O)N[C@@H](CCCCN)C(=O)N1CCC[C@H]1C(=O)N[C@@H](CCCN=C(N)N)C(=O)N1CCC[C@H]1C(=O)N1CCC[C@H]1C(=O)N[C@@H](Cc1cnc[nH]1)C(=O)N1CCC[C@H]1C(=O)N[C@@H](CCCN=C(N)N)C(=O)N[C@@H](CC(C)C)C(N)=O [KNNRPVYIPKPRPPHPRL]

- MIC [21]: 1 µM (≈ 1.8 µg/mL)
- MIC (Acinetobacter baumannii): 6.2 µM (≈ 11.2 µg/mL)
- MIC [4]: 13 µM (≈ 23.5 µg/mL)
- MIC (Escherichia coli D21): 13 µM (≈ 23.5 µg/mL)
- MIC (Micrococcus luteus): 2 µM (≈ 3.61 µg/mL)
- MIC [7]: 24.9 µM and 25 µM
- MIC [22]: 3 µM (≈ 5.41 µg/mL)
- MIC [23]: 4 µM (≈ 7.22 µg/mL)
- MIC (Staphylococcus simulans): 2 µM (≈ 3.61 µg/mL)
Compound: CC(C)C[C@H](NC(=O)[C@H](CC(C)C)NC(=O)[C@H](CCCCN)NC(=O)[C@H](CC(C)C)NC(=O)[C@H](CC(C)C)NC(=O)[C@H](CCCCN)NC(=O)[C@H](CCCCN)NC(=O)[C@H](CC(C)C)NC(=O)[C@H](CC(C)C)NC(=O)[C@H](CCCCN)NC(=O)[C@H](CCCCN)NC(=O)[C@H](CC(C)C)NC(=O)[C@H](CC(C)C)NC(=O)[C@H](CCCCN)NC(=O)[C@@H](N)CC(C)C)C(N)=O [LKLLKKLLKKLLKLL]

More lines, now with the values behind:

Compound: CC[C@H](C)[C@H](NC(=O)[C@H](CCCCN)NC(=O)[C@H](CO)NC(=O)[C@@H](NC(=O)[C@H](CC(C)C)NC(=O)[C@H](CO)NC(=O)[C@@H]1CCCN1C(=O)[C@H](CC(C)C)NC(=O)[C@H](C)NC(=O)[C@H](CO)NC(=O)[C@H](C)NC(=O)[C@H](CC(C)C)NC(=O)[C@H](C)NC(=O)CNC(=O)[C@@H](NC(=O)[C@@H](NC(=O)[C@H](CO)NC(=O)CNC(=O)[C@H](CC(C)C)NC(=O)[C@@H](N)Cc1ccccc1)[C@@H](C)CC)C(C)C)[C@@H](C)CC)C(=O)N[C@@H](CCCN=C(N)N)C(=O)N[C@@H](CC(N)=O)C(N)=O [FLGSIVGALASALPSLISKIRN]
- MIC [1]: ≥ 50 µM
- MIC [2]: ≥ 50 µM
- MIC [3]: 50 µM (≈ 111 µg/mL)
- MIC [4]: 25 µM (≈ 55.7 µg/mL)
- MIC [5]: ≥ 100 µM
- MIC [6]: ≥ 100 µM
- MIC [7]: 50 µM (≈ 111 µg/mL)
- MIC [8]: 25 µM (≈ 55.7 µg/mL)
- MIC [9]: 25 µM (≈ 55.7 µg/mL)
- MIC [10]: 12.5 µM (≈ 27.8 µg/mL)

Compound: CC(C)C[C@H](NC(=O)[C@H](CCCCN)NC(=O)[C@H](CC(C)C)NC(=O)[C@H](CC(C)C)NC(=O)[C@H](CCCCN)NC(=O)[C@H](CC(C)C)NC(=O)[C@H](CC(C)C)NC(=O)[C@H](CCCCN)NC(=O)[C@H](CC(C)C)NC(=O)[C@H](CC(C)C)NC(=O)[C@H](CCCCN)NC(=O)[C@H](CC(C)C)NC(=O)[C@H](CC(C)C)NC(=O)[C@@H](N)CCCCN)C(=O)N[C@@H](Cc1c[nH]c2ccccc12)C(=O)N[C@@H](CCCCN)C(=O)O [KLLKLLKLLKLLKLWK]
- MIC [11]: 0.78 µM (≈ 1.55 µg/mL)
- MIC [12]: 12.5 µM (≈ 24.9 µg/mL)
- MIC (Spiroplasma citri R8A2): 6.25 µM (≈ 12.4 µg/mL)
- MIC [13]: 6.25 µM (≈ 12.4 µg/mL)
- MIC [14]: 6.25 µM (≈ 12.4 µg/mL)

Compound: CC[C@H](C)[C@H](NC(=O)[C@H](CCCCN)NC(=O)[C@H](CCCN=C(N)N)NC(=O)[C@@H](NC(=O)[C@H](CC(C)C)NC(=O)[C@H](CCCCN)NC(=O)[C@H](CC(C)C)NC(=O)[C@@H](NC(=O)[C@H](CCCCN)NC(=O)CNC(=O)[C@H](Cc1ccccc1)NC(=O)[C@@H](N)Cc1ccccc1)C(C)C)[C@@H](C)CC)C(=O)N[C@@H](Cc1ccccc1)C(N)=O [FFGKVLKLIRKIF]
- MIC (Bacillus subtilis 168): ≥ 100 µM
- MIC [24]: ≥ 79.5 µM
- MIC (Escherichia coli K-12): ≥ 100 µM
- MIC (Escherichia coli): > 79.5 µM
- MIC (Listeria monocytogenes): 4.97 µM (≈ 8 µg/mL)
- MIC [25]: ≥ 79.5 µM
- MIC [26]: > 100 µM
- MIC [27]: ≥ 39.8 µM
- MIC [28]: 3.1 µM (≈ 4.99 µg/mL)
- MIC (Staphylococcus aureus): 39.8 µM (≈ 64 µg/mL)

Compound: CC[C@H](C)[C@H](NC(=O)[C@H](CCCCN)NC(=O)[C@@H]1CCCN1C(=O)[C@H](CC(C)C)NC(=O)[C@H](Cc1ccccc1)NC(=O)[C@H](CC(N)=O)NC(=O)[C@H](C)NC(=O)[C@H](C)NC(=O)[C@H](CC(C)C)NC(=O)CNC(=O)[C@H](C)NC(=O)[C@H](CC(C)C)NC(=O)[C@H](CCSC)NC(=O)[C@@H]1CCCN1C(=O)[C@H](CC(C)C)NC(=O)[C@@H](N)Cc1ccccc1)C(=O)N[C@H](C(=O)N[C@H]1CSSC[C@@H](C(=O)O)NC(=O)[C@H](CCCCN)NC(=O)[C@H](CCCCN)NC(=O)[C@H]([C@@H](C)O)NC(=O)[C@H]([C@@H](C)CC)NC(=O)[C@H](CCCCN)NC1=O)C(C)C [FLPMLAGLAANFLPKIVCKITKKC]
- MIC [29]: 2.3 µM (≈ 6.02 µg/mL)
- MIC [30]: 37.5 µM (≈ 98.2 µg/mL)
- MIC [31]: 9 µM (≈ 23.6 µg/mL)
- MIC [4]: 75 µM (≈ 196 µg/mL)
- MIC [32]: ≥ 150 µM
- MIC [33]: ≥ 75 µM
- MIC [34]: ≥ 75 µM
- MIC [35]: 9 µM (≈ 23.6 µg/mL)
- MIC [36]: 0.6 µM (≈ 1.57 µg/mL)
- MIC (Serratia rubidaea X01): 4.6 µM (≈ 12 µg/mL)
- MIC [37]: 9 µM (≈ 23.6 µg/mL)
- MIC [38]: 1.2 µM (≈ 3.14 µg/mL)
